Experimental data published in PubChem BioAssay (NCI).
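Briefly, cells in 96-well plates were exposed to five compound concentrations for 48 h, and endpoints were estimated by linear interpolation. Abbreviation: GI50, concentration required for 50% inhibition of growth. TGI is the concentration that stops growth completely.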

What was measured:
Assay in all cases: NCI tumour cell line growth inhibition, 48 h
786-0 renal = system: 786-0 renal
A498 renal = system: A498 renal
A549 NSCLC = system: A549 NSCLC
ACHN renal = system: ACHN renal
BT-549 breast = system: BT-549 breast
CAKI-1 renal = system: CAKI-1 renal
CCRF-CEM leukemia = system: CCRF-CEM leukemia
COLO 205 colon = system: COLO 205 colon
DU-145 prostate = system: DU-145 prostate
EKVX NSCLC = system: EKVX NSCLC
HCC-2998 colon = system: HCC-2998 colon
HCT-116 colon = system: HCT-116 colon
HCT-15 colon = system: HCT-15 colon
HL-60(TB) leukemia = system: HL-60(TB) leukemia
HOP-62 NSCLC = system: HOP-62 NSCLC
HOP-92 NSCLC = system: HOP-92 NSCLC
HS 578T breast = system: HS 578T breast
HT29 colon = system: HT29 colon
IGROV1 ovarian = system: IGROV1 ovarian
K-562 leukemia = system: K-562 leukemia
KM12 colon = system: KM12 colon
LOX IMVI melanoma = system: LOX IMVI melanoma
M14 melanoma = system: M14 melanoma
MALME-3M melanoma = system: MALME-3M melanoma
MCF7 breast = system: MCF7 breast
MDA-MB-231 breast = system: MDA-MB-231 breast
MDA-MB-435 = system: MDA-MB-435
MOLT-4 leukemia = system: MOLT-4 leukemia
NCI-H226 lung = system: NCI-H226 lung
NCI-H23 lung = system: NCI-H23 lung
NCI-H460 lung = system: NCI-H460 lung
NCI-H522 lung = system: NCI-H522 lung
NCI/ADR-RES ovarian = system: NCI/ADR-RES ovarian
OVCAR-3 ovarian = system: OVCAR-3 ovarian
OVCAR-4 ovarian = system: OVCAR-4 ovarian
OVCAR-5 ovarian = system: OVCAR-5 ovarian
OVCAR-8 ovarian = system: OVCAR-8 ovarian
PC-3 prostate = system: PC-3 prostate
RPMI-8226 leukemia = system: RPMI-8226 leukemia
RXF 393 renal = system: RXF 393 renal
SF-268 CNS = system: SF-268 CNS
SF-295 CNS = system: SF-295 CNS
SF-539 CNS = system: SF-539 CNS
SK-MEL-2 melanoma = system: SK-MEL-2 melanoma
SK-MEL-28 melanoma = system: SK-MEL-28 melanoma
SK-MEL-5 melanoma = system: SK-MEL-5 melanoma
SK-OV-3 ovarian = system: SK-OV-3 ovarian
SN12C renal = system: SN12C renal
SNB-19 CNS = system: SNB-19 CNS
SNB-75 CNS = system: SNB-75 CNS
SR leukemia = system: SR leukemia
SW-620 colon = system: SW-620 colon
T-47D breast = system: T-47D breast
TK-10 renal = system: TK-10 renal
U251 CNS = system: U251 CNS
UACC-257 melanoma = system: UACC-257 melanoma
UACC-62 melanoma = system: UACC-62 melanoma
UO-31 renal = system: UO-31 renal

Molecule `Cn1c(/C=C(\C#N)c2ccccc2)nc2c(N3CCOCC3)nc(Cl)nc21` has a GI50 (786-0 renal) of 1560 nM, a TGI (786-0 renal) of 3050 nM and a GI50 (A498 renal) of 1510 nM. The TGI (A498 renal) was 2870 nM, the GI50 (A549 NSCLC) was 1530 nM and the TGI (A549 NSCLC) was 4030 nM. The GI50 (ACHN renal) was 458 nM, the TGI (ACHN renal) was 1590 nM and the GI50 (BT-549 breast) was 711 nM. For the same molecule, the TGI (BT-549 breast) was 2070 nM, the GI50 (CAKI-1 renal) was 824 nM and the TGI (CAKI-1 renal) was 2210 nM. The GI50 (CCRF-CEM leukemia) was 295 nM, the TGI (CCRF-CEM leukemia) was 971 nM and the GI50 (COLO 205 colon) was 1340 nM. The TGI (COLO 205 colon) was 2930 nM, the GI50 (DU-145 prostate) was 1280 nM and the TGI (DU-145 prostate) was 2560 nM. The GI50 (EKVX NSCLC) was 1420 nM, the TGI (EKVX NSCLC) was 3040 nM and the GI50 (HCC-2998 colon) was 1820 nM. The TGI (HCC-2998 colon) was 3330 nM, the GI50 (HCT-116 colon) was 178 nM and the TGI (HCT-116 colon) was 432 nM. For the same molecule, the GI50 (HCT-15 colon) was 233 nM, the TGI (HCT-15 colon) was 641 nM and the GI50 (HL-60(TB) leukemia) was 462 nM. It also gave a TGI (HL-60(TB) leukemia) of 2610 nM, a GI50 (HOP-62 NSCLC) of 1580 nM and a TGI (HOP-62 NSCLC) of 3510 nM. For the same molecule, the GI50 (HOP-92 NSCLC) was 405 nM, the TGI (HOP-92 NSCLC) was 2060 nM and the GI50 (HS 578T breast) was 1690 nM. The TGI (HS 578T breast) was 5640 nM, the GI50 (HT29 colon) was 386 nM and the TGI (HT29 colon) was 1470 nM. The GI50 (IGROV1 ovarian) was 871 nM, the TGI (IGROV1 ovarian) was 2170 nM and the GI50 (K-562 leukemia) was 348 nM. It also gave a TGI (K-562 leukemia) of 3460 nM, a GI50 (KM12 colon) of 1870 nM and a TGI (KM12 colon) of 3770 nM. It also gave a GI50 (LOX IMVI melanoma) of 324 nM, a TGI (LOX IMVI melanoma) of 1250 nM and a GI50 (M14 melanoma) of 844 nM. It also gave a TGI (M14 melanoma) of 2260 nM, a GI50 (MALME-3M melanoma) of 1450 nM and a TGI (MALME-3M melanoma) of 2860 nM. It also gave a GI50 (MCF7 breast) of 480 nM, a TGI (MCF7 breast) of 2150 nM and a GI50 (MDA-MB-231 breast) of 1310 nM. For the same molecule, the TGI (MDA-MB-231 breast) was 2920 nM, the GI50 (MDA-MB-435) was 1300 nM and the TGI (MDA-MB-435) was 2780 nM. It also gave a GI50 (MOLT-4 leukemia) of 669 nM, a TGI (MOLT-4 leukemia) of 3120 nM and a GI50 (NCI-H226 lung) of 1520 nM. For the same molecule, the TGI (NCI-H226 lung) was 3400 nM, the GI50 (NCI-H23 lung) was 1630 nM and the TGI (NCI-H23 lung) was 3200 nM. The GI50 (NCI-H460 lung) was 1770 nM, the TGI (NCI-H460 lung) was 3720 nM and the GI50 (NCI-H522 lung) was 740 nM. It also gave a TGI (NCI-H522 lung) of 2470 nM, a GI50 (NCI/ADR-RES ovarian) of 1980 nM and a TGI (NCI/ADR-RES ovarian) of 7230 nM. The GI50 (OVCAR-3 ovarian) was 673 nM, the TGI (OVCAR-3 ovarian) was 1880 nM and the GI50 (OVCAR-4 ovarian) was 1130 nM. For the same molecule, the TGI (OVCAR-4 ovarian) was 2500 nM, the GI50 (OVCAR-5 ovarian) was 1420 nM and the TGI (OVCAR-5 ovarian) was 2990 nM. For the same molecule, the GI50 (OVCAR-8 ovarian) was 1040 nM, the TGI (OVCAR-8 ovarian) was 3390 nM and the GI50 (PC-3 prostate) was 849 nM. It also gave a TGI (PC-3 prostate) of 2990 nM, a GI50 (RPMI-8226 leukemia) of 254 nM and a TGI (RPMI-8226 leukemia) of 804 nM. For the same molecule, the GI50 (RXF 393 renal) was 890 nM, the TGI (RXF 393 renal) was 2140 nM and the GI50 (SF-268 CNS) was 1550 nM. The TGI (SF-268 CNS) was 3150 nM, the GI50 (SF-295 CNS) was 1980 nM and the TGI (SF-295 CNS) was 4320 nM. It also gave a GI50 (SF-539 CNS) of 1420 nM, a TGI (SF-539 CNS) of 2740 nM and a GI50 (SK-MEL-2 melanoma) of 1620 nM. For the same molecule, the TGI (SK-MEL-2 melanoma) was 3180 nM, the GI50 (SK-MEL-28 melanoma) was 1570 nM and the TGI (SK-MEL-28 melanoma) was 2960 nM. It also gave a GI50 (SK-MEL-5 melanoma) of 1640 nM, a TGI (SK-MEL-5 melanoma) of 3010 nM and a GI50 (SK-OV-3 ovarian) of 4540 nM. For the same molecule, the TGI (SK-OV-3 ovarian) was 16200 nM, the GI50 (SN12C renal) was 1120 nM and the TGI (SN12C renal) was 2480 nM. The GI50 (SNB-19 CNS) was 1600 nM, the TGI (SNB-19 CNS) was 3090 nM and the GI50 (SNB-75 CNS) was 276 nM. The TGI (SNB-75 CNS) was 1590 nM, the GI50 (SR leukemia) was 393 nM and the TGI (SR leukemia) was 2100 nM. For the same molecule, the GI50 (SW-620 colon) was 413 nM, the TGI (SW-620 colon) was 1510 nM and the GI50 (T-47D breast) was 1230 nM. It also gave a TGI (T-47D breast) of 3750 nM, a GI50 (TK-10 renal) of 1820 nM and a TGI (TK-10 renal) of 3240 nM. For the same molecule, the GI50 (U251 CNS) was 1470 nM, the TGI (U251 CNS) was 2970 nM and the GI50 (UACC-257 melanoma) was 1430 nM. For the same molecule, the TGI (UACC-257 melanoma) was 3030 nM, the GI50 (UACC-62 melanoma) was 1190 nM and the TGI (UACC-62 melanoma) was 2520 nM. For the same molecule, the GI50 (UO-31 renal) was 553 nM and the TGI (UO-31 renal) was 1880 nM.
